Measurements from ChEMBL document CHEMBL3217622, “Design of 7-amino-6-chloro-3H-imidazo[4,5-b]pyridine scaffold from 5-chloro-2,4-diaminopyrimidine pharmacophore: identification of potent inhibitors of anaplastic lymphoma kinase” (Medchemcomm, 2012).
pIC50: −log10 of the molar value.

Assays:
[1] = biological target: Insulin receptor (Homo sapiens, UniProt P06213); assay: Inhibition of insulin receptor kinase (unknown origin)
[2] = tested on: Liver microsome; assay: Metabolic stability in human liver microsomes assessed as GSH conjugation by LC/MS analysis; type: ADME
[3] = (§1) AUC (0 to infinity) in rat at 5 mg/kg, po; type: ADME, organism-based, Plasma; parameters: dose 5 mg/kg, route oral, time infinity; conditions: plasma
[4] = tested on: Liver microsome; assay: Bioactivation in human liver microsomes in presence of NADPH
[5] = Oral bioavailability in rat at 5 mg/kg; type: ADME, organism-based; conditions: in vivo
[6] = tested on: Rattus norvegicus; assay: Volume of distribution in rat at 1 mg/kg, iv; type: ADME, organism-based; parameters: dose 1 mg/kg, route intravenous; conditions: in vivo
[7] = AUC (0 to infinity) in rat at 1 mg/kg, iv; type: ADME, organism-based; parameters: dose 1 mg/kg, route intravenous, time infinity; conditions: plasma
[8] = (§2) Cmax in rat at 5 mg/kg, po; type: ADME, organism-based; parameters: dose 5 mg/kg, route oral; conditions: in vivo
[9] = tested on: Rattus norvegicus; assay: Half life in rat at 1 mg/kg, iv; type: ADME, organism-based; parameters: dose 1 mg/kg, route intravenous; conditions: in vivo
[10] = biological target: T1, Cytochrome P450 3A4 (Homo sapiens, UniProt P08684); assay: Inhibition of CYP3A4 in human pooled liver microsomes using midazolam as substrate by LC/MS/MS analysis
[11] = biological target: Voltage-gated inwardly rectifying potassium channel KCNH2 (Homo sapiens, UniProt Q12809); assay: Inhibition of human ERG by automated patch-clamp assay
[12] = biological target: Cytochrome P450 2C9 (Homo sapiens, UniProt P11712); assay: Inhibition of CYP2C9 in human pooled liver microsomes using diclofenac as substrate by LC/MS/MS analysis
[13] = biological target: Cytochrome P450 2D6 (Homo sapiens, UniProt P10635); assay: Inhibition of CYP2D6 in human pooled liver microsomes using dextromethorphan as substrate by LC/MS/MS analysis
[14] = Apparent permeability of the compound from apical to basolateral side in human Caco2 cells by absorption system analysis; conditions: Caco-2
[15] = biological target: T1, Cytochrome P450 3A4; assay: Inhibition of CYP3A4 in human pooled liver microsomes using testosterone as substrate by LC/MS/MS analysis
[16] = biological target: Cytochrome P450 2C19 (Homo sapiens, UniProt P33261); assay: Inhibition of CYP2C19 in human pooled liver microsomes using S-mephenytoin as substrate by LC/MS/MS analysis
[17] = biological target: T2, Cytochrome P450 1A2 (Homo sapiens, UniProt P05177); assay: Inhibition of CYP1A2 in human pooled liver microsomes using phenacetin as substrate by LC/MS/MS analysis
T2 sequence (P05177 whole entry): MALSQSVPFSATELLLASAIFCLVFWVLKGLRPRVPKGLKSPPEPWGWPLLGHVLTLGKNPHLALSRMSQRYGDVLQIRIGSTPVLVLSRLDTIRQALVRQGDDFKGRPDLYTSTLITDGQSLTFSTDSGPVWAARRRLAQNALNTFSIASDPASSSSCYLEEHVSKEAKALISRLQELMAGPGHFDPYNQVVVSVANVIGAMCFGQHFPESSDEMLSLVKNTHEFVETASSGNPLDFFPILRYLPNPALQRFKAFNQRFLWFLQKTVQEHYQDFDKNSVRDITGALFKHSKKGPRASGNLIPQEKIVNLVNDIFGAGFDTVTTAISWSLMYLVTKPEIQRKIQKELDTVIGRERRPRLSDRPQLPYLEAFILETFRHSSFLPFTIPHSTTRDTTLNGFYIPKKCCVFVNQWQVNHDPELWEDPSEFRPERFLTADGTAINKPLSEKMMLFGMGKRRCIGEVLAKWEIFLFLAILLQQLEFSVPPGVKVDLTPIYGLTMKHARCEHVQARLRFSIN

[18] = tested on: Rattus norvegicus; assay: as §1; type: ADME, organism-based, Plasma; parameters: dose 5 mg/kg, route oral, time infinity; conditions: in vivo, BLD = below limit of detection
[19] = tested on: Rattus norvegicus; assay: as §2; type: ADME, organism-based; parameters: dose 5 mg/kg, route oral; conditions: in vivo, BLD = below limit of detection
[20] = biological target: ALK tyrosine kinase receptor (Homo sapiens, UniProt Q9UM73); assay: Inhibition of ALK (unknown origin)
ALK tyrosine kinase receptor, sequence (Q9UM73 whole entry): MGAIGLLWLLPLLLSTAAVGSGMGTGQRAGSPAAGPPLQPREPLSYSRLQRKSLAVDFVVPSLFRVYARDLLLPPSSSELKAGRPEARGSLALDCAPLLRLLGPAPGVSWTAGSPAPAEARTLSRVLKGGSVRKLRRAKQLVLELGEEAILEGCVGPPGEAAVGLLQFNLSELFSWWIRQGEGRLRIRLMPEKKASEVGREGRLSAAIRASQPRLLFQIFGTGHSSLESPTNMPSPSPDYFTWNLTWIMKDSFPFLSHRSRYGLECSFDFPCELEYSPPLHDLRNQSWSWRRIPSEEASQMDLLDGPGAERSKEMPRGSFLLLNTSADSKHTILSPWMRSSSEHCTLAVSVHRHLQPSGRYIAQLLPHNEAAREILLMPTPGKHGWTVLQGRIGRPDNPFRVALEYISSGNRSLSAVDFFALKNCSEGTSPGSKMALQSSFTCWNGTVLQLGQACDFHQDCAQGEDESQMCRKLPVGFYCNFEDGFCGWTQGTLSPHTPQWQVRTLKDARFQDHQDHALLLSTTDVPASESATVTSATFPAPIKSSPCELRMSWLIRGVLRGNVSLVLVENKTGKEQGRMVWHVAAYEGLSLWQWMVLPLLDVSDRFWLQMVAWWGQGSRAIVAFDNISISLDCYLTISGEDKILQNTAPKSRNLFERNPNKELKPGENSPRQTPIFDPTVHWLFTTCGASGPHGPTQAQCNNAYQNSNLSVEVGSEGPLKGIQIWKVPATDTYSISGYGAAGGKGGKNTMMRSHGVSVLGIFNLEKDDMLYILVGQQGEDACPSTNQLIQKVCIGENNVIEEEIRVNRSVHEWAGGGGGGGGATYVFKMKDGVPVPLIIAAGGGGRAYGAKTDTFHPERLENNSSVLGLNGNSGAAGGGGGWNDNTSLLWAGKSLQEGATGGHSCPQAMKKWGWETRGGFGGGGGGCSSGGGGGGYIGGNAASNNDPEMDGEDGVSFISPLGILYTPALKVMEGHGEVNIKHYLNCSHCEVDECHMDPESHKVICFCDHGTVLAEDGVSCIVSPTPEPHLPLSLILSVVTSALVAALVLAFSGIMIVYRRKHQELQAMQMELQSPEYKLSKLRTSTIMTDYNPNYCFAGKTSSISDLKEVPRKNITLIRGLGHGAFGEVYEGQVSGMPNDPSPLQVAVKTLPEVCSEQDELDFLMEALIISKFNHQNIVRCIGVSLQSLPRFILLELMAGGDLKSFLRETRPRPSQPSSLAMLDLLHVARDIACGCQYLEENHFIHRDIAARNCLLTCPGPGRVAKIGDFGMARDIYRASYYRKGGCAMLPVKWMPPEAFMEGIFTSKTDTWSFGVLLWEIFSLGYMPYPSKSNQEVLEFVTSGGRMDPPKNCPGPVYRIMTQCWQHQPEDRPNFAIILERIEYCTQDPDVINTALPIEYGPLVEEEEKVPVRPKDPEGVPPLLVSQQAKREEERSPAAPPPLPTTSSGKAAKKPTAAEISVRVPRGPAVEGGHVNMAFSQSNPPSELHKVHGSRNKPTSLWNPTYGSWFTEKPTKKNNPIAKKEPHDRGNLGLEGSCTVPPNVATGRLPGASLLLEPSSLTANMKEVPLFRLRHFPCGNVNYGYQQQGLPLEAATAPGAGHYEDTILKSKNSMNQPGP

Cytochrome P450 2C9, sequence (P11712 whole entry): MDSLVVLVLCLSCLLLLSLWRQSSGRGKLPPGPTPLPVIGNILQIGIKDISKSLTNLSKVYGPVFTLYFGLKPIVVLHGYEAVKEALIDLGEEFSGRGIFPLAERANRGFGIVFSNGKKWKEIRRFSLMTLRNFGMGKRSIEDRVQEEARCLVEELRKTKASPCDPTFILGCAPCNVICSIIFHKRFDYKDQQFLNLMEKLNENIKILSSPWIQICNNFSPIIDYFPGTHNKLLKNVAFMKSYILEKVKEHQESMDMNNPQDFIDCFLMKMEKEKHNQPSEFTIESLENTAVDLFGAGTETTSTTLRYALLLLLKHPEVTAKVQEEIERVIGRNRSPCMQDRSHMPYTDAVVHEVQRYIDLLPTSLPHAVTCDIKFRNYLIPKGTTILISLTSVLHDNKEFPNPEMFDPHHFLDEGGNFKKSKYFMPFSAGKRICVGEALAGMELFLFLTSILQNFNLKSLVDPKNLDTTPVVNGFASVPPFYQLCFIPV
Cytochrome P450 2C19, sequence (P33261 whole entry): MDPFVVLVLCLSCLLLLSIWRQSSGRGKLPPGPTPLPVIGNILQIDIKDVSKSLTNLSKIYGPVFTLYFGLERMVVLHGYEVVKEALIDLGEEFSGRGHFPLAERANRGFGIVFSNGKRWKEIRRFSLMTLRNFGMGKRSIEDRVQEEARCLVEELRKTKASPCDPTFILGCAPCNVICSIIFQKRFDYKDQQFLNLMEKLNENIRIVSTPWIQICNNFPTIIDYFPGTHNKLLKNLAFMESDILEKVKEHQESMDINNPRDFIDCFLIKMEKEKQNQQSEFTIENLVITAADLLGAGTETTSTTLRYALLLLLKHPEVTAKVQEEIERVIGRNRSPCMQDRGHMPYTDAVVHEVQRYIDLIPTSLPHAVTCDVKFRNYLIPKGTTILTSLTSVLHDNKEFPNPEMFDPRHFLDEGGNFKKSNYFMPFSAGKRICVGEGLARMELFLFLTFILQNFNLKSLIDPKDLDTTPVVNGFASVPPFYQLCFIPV
Cytochrome P450 2D6, sequence (P10635 whole entry): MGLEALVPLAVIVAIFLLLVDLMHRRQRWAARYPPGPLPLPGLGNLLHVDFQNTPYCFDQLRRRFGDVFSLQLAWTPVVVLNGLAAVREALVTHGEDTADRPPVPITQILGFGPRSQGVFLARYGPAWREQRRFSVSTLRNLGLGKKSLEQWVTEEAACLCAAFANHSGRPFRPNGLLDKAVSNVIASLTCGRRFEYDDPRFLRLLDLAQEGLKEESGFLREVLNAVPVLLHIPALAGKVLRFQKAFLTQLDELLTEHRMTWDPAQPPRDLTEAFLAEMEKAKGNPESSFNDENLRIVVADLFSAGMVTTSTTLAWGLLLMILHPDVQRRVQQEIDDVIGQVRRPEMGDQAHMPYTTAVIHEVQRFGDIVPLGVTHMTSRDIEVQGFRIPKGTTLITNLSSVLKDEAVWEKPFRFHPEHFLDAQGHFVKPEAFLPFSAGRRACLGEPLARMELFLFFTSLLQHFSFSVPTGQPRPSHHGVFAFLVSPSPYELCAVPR
T1 sequence (P08684 whole entry): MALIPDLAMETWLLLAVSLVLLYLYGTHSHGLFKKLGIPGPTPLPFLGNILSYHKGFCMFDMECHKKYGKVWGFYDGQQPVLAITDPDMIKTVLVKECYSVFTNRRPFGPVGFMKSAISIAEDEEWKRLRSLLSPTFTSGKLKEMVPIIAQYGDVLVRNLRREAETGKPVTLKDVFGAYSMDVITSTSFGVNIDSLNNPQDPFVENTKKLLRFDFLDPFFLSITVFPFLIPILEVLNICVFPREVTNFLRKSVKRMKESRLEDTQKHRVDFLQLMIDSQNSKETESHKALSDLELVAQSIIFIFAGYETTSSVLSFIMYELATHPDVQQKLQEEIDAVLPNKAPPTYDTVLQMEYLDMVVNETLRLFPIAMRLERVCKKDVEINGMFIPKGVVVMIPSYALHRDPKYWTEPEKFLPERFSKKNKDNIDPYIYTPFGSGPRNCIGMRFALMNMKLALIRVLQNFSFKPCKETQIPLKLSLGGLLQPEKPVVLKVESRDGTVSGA
Voltage-gated inwardly rectifying potassium channel KCNH2, sequence (Q12809 whole entry): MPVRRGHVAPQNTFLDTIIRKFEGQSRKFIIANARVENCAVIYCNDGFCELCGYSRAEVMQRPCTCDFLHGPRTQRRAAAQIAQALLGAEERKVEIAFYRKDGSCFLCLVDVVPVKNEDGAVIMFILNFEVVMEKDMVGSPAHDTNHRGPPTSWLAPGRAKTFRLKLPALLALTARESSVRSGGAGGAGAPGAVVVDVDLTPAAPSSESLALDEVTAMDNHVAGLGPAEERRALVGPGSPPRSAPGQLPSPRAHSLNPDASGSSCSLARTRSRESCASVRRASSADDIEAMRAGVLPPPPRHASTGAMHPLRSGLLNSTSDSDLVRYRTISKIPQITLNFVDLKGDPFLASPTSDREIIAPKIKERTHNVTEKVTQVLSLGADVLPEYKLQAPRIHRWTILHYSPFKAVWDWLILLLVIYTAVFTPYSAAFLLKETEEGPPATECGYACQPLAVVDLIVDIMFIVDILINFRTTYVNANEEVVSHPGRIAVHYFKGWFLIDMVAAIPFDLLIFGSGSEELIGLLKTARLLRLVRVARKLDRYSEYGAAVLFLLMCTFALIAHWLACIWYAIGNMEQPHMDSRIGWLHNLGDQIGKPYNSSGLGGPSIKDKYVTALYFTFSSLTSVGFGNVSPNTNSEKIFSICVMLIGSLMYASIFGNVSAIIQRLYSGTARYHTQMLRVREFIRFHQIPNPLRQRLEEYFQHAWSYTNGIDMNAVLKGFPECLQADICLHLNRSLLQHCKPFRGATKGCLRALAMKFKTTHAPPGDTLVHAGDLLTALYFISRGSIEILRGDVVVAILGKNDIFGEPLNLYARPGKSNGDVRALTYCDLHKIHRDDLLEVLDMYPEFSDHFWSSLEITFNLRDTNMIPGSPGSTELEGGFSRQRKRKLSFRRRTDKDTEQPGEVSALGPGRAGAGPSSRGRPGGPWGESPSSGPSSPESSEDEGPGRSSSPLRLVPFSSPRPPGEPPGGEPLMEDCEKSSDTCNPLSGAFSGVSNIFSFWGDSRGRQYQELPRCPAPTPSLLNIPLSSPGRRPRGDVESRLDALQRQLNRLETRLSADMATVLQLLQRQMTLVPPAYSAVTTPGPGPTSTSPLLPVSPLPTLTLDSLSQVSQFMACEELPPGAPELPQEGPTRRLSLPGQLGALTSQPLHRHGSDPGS

| Structure (SMILES) | AUC(0-inf) [3] [ng·h/mL] | bioavailability [5] [%] | Vd [6] [L/kg] | AUC(0-inf) [7] [ng·h/mL] | Cmax [8] [ng/mL] | t1/2 [9] [h] | pIC50 [10] | pIC50 [12] | pIC50 [13] | pIC50 [15] | pIC50 [16] | pIC50 [17] | other results |
| --- | --- | --- | --- | --- | --- | --- | --- | --- | --- | --- | --- | --- | --- |
| COc1cccc(-c2nc3c(N[C@H]4[C@@H](C(N)=O)[C@@H]5C=C[C@H]4C5)c(Cl)cnc3[nH]2)c1 | – | – | – | – | – | – | – | – | – | – | – | – | pIC50 [1]: < 5.52 |
| COc1cc(N2CCC(N3CCOCC3)CC2)ccc1-c1nc2c(N[C@H]3[C@@H](C(N)=O)[C@@H]4C=C[C@H]3C4)c(Cl)cnc2[nH]1 | 740 | 8 | 1.8 | 1750 | 158 | 1.9 | – | – | – | – | – | – | – |
| COc1cc(CN2CCOCC2)ccc1-c1nc2c(N[C@H]3[C@@H](C(N)=O)[C@@H]4C=C[C@H]3C4)c(Cl)cnc2[nH]1 | 1730 | 76 | 5.6 | 451 | 317 | 1.6 | < 4.52 | < 4.52 | < 4.52 | < 4.52 | < 4.52 | < 4.52 | Papp A→B [14]: 10.8 ×10⁻⁶ cm/s |
| NC(=O)[C@@H]1[C@H](Nc2ccnc3[nH]c(-c4ccc(N5CCOCC5)cc4)nc23)[C@H]2C=C[C@@H]1C2 | – | – | – | – | – | – | – | – | – | – | – | – | pIC50 [20]: < 5.00 |
| CN1CCN(c2ccc(-c3nc4c(N[C@H]5[C@@H](C(N)=O)[C@@H]6C=C[C@H]5C6)ccnc4[nH]3)cc2)CC1 | – | – | – | – | – | – | – | – | – | – | – | – | pIC50 [20]: < 5.52 |

Now from value to compound, other results behind:

| AUC(0-inf) [3] [ng·h/mL] | bioavailability [5] [%] | Vd [6] [L/kg] | AUC(0-inf) [7] [ng·h/mL] | Cmax [8] [ng/mL] | t1/2 [9] [h] | pIC50 [10] | pIC50 [12] | pIC50 [13] | pIC50 [15] | pIC50 [16] | pIC50 [17] | Structure (SMILES) | other results |
| --- | --- | --- | --- | --- | --- | --- | --- | --- | --- | --- | --- | --- | --- |
| 2580 | 21 | 0.8 | 2480 | 429 | 1.4 | – | – | – | – | – | – | COc1cc(N2CCOCC2)ccc1-c1nc2c(N[C@H]3[C@@H](C(N)=O)[C@@H]4C=C[C@H]3C4)c(Cl)cnc2[nH]1 | Stability [2]: Stable; Stability [4]: Stable |
| 148 | 7 | 5.3 | 416 | 26 | 1.4 | 4.86 | < 4.52 | < 4.52 | 5.07 | < 4.52 | < 4.52 | COc1cc(N2CCN(C)CC2)ccc1-c1nc2c(N[C@H]3[C@@H](C(N)=O)[C@@H]4C=C[C@H]3C4)c(Cl)cnc2[nH]1 | pIC50 [11]: < 5.00; Papp A→B [14]: 5 ×10⁻⁶ cm/s |
| – | 0 | 3 | 1430 | – | 2.5 | < 4.52 | < 4.52 | < 4.52 | < 4.52 | < 4.52 | < 4.52 | COc1cc(N2CCC(N3CCN(C)CC3)CC2)ccc1-c1nc2c(N[C@H]3[C@@H](C(N)=O)[C@@H]4C=C[C@H]3C4)c(Cl)cnc2[nH]1 | AUC [18]: BLD; Cmax [19]: BLD |
| – | 0 | 1.6 | 1140 | – | 1.1 | – | – | – | – | – | – | COc1cc(CN2CCN(C)CC2)ccc1-c1nc2c(N[C@H]3[C@@H](C(N)=O)[C@@H]4C=C[C@H]3C4)c(Cl)cnc2[nH]1 | AUC [18]: BLD; Cmax [19]: BLD |
